Assay results from patent US8735398B2 (Bristol-Myers Squibb Company, priority 2009, dated 2014).

System: HCV 1b genotype
Experiment: HCV replicon assay (HCV-neo replicon cells, wild-type)
Format: cell-based, Hepatitis C virus
Details: HCV 1b genotype replicon; class symbol; read-out: EC50 Range against HCV 1b
Experimental: An HCV Replicon assay was utilized in the present disclosure, and was prepared, conducted and validated as described in commonly owned PCT/US2006/022197 and in O'Boyle et al., Antimicrob. Agents Chemother, 49(4):1346-1353 (April 2005). Assay methods incorporating luciferase reporters have also been used as described (Apath.com).
HCV-neo replicon cells and replicon cells containing resistance substitutions in the NS5A region were used to test the currently described family of compounds.
The compounds were determined to have differing degrees of reduced inhibitory activity on cells containing mutations vs. the corresponding inhibitory potency against wild-type cells. Thus, the compounds of the present disclosure can be effective in inhibiting the function of the HCV NS5A protein and are understood to be as effective in combinations as previously described in application PCT/US2006/022197 and commonly owned WO 04/014852. It should be understood that the compounds of the present disclosure can inhibit multiple genotypes of HCV. […] In one embodiment, compounds of the present disclosure are inhibitory versus 1a, 1b, 2a, 2b, 3a, 4a, and 5a genotypes.

| SMILES | EC50 |
| --- | --- |
| CC(C)n1c(=O)n(CC(=O)N2CCC[C@H]2C(=O)Nc2ccc(-c3cnc(-c4ccc(NC(=O)[C@@H]5CCCN5C(=O)Cn5c(=O)n(C(C)C)c6cc(F)c(F)cc65)cc4)o3)cc2)c2cc(F)c(F)cc21 [Example D-9, (2S,2′S)-N,N′-(4,4′-(oxazole-2,5-diyl)bis(4,1-phenylene))bis(1-(2-(5,6-difluoro-3-isopropyl-2-oxo-2,3-dihydro-1H-benzo[d]imidazol-1-yl)acetyl)pyrrolidine-2-carboxamide)] | 1000 to 10000 nM |
| CN(C)C(C(=O)N1CCC[C@H]1C(=O)Nc1ccc(-c2cnc(-c3ccc(NC(=O)[C@@H]4CCCN4C(=O)C(c4ccc(F)cc4F)N(C)C)cc3)o2)cc1)c1ccc(F)cc1F (single isomer, unassigned) [Example D-7] | 4.57 to 99 nM |

Same assay, conditions: HCV 1b genotype replicon; read-out: EC50 1b

| SMILES | EC50 |
| --- | --- |
| CC(C)n1c(=O)n(CC(=O)N2CCC[C@H]2C(=O)Nc2ccc(-c3cnc(-c4ccc(NC(=O)[C@@H]5CCCN5C(=O)Cn5c(=O)n(C(C)C)c6cc(F)c(F)cc65)cc4)o3)cc2)c2cc(F)c(F)cc21 [Example D-9, (2S,2′S)-N,N′-(4,4′-(oxazole-2,5-diyl)bis(4,1-phenylene))bis(1-(2-(5,6-difluoro-3-isopropyl-2-oxo-2,3-dihydro-1H-benzo[d]imidazol-1-yl)acetyl)pyrrolidine-2-carboxamide)] | 3330 nM |

Same assay, conditions: Hepatitis C virus, HCV 1b genotype replicon; class symbol; read-out: EC50 Range against HCV 1b

| SMILES | EC50 |
| --- | --- |
| O=C(Cc1ccccc1)NC1(C(=O)Nc2ccc(-c3cnc(-c4ccc(NC(=O)C5(NC(=O)Cc6ccccc6)CC5)cc4)o3)cc2)CC1 [JG-18, N,N′-(1,3-oxazole-2,5-diyldi-4,1-phenylene)bis(1-((phenylacetyl)amino)cyclopropanecarboxamide)] | 1000 to 10000 nM |
| CN(C)[C@@H](C(=O)N1CCC[C@H]1C(=O)Nc1ccc(-c2ccc(-c3ccc(NC(=O)[C@@H]4CCCN4C(=O)[C@@H](c4ccccc4)N(C)C)cc3)o2)cc1)c1ccccc1 [JG-63, (2S,2′S)-N,N′-(2,5-furandiyldi-4,1-phenylene)bis(1-((2R)-2-(dimethylamino)-2-phenylacetyl)-2-pyrrolidinecarboxamide)] | < 4.57 nM |
| CN(C)[C@@H](C(=O)N1CCC[C@H]1C(=O)Nc1ccc(-c2ccc(-c3ccc(NC(=O)[C@@H]4CCCN4C(=O)[C@H](O)c4ccccc4)cc3)o2)cc1)c1ccccc1 [JG-66, (2S)-1-((2R)-2-(dimethylamino)-2-phenylacetyl)-N-(4-(5-(4-((((2S)-1-((2R)-2-hydroxy-2-phenylacetyl)-2-pyrrolidinyl)carbonyl)amino)phenyl)-2-furyl)phenyl)-2-pyrrolidinecarboxamide] | < 4.57 nM |
| COc1cccc2c(C(=O)N3CCC[C@H]3C(=O)Nc3ccc(-c4ccc(-c5ccc(NC(=O)[C@@H]6CCCN6C(=O)[C@@H](O)c6ccccc6)cc5)o4)cc3)nc(Cl)cc12 [JG-68, (2S)-1-((3-chloro-5-methoxy-1-isoquinolinyl)carbonyl)-N-(4-(5-(4-((((2S)-1-((2S)-2-hydroxy-2-phenylacetyl)-2-pyrrolidinyl)carbonyl)amino)phenyl)-2-furyl)phenyl)-2-pyrrolidinecarboxamide] | 100 to 999 nM |
| O=C(Nc1ccc(-c2n[nH]c(=O)n2-c2ccc(NC(=O)[C@@H]3CCCN3C(=O)OCc3ccccc3)cc2)cc1)[C@@H]1CCCN1C(=O)OCc1ccccc1 [OL-13, (2S,2′S)-2,2′-[(1,5-dihydro-5-oxo-4H-1,2,4-triazole-3,4-diyl)bis(4,1-phenyleneiminocarbonyl)]bis-1-pyrrolidinecarboxylic acid, bis(phenylmethyl) ester,] | 1000 to 10000 nM |
| O=C(Nc1ccc(-c2cnc(-c3ccc(NC(=O)N[C@@H]4CCN(C(=O)[C@@H](O)c5ccccc5)C4)cc3)o2)cc1)N[C@@H]1CCN(C(=O)[C@@H](O)c2ccccc2)C1 [FY-6, N′,N′″-(1,3-oxazole-2,5-diyldi-4,1-phenylene)bis(1-((3R)-1-((2S)-2-hydroxy-2-phenylacetyl)-3-pyrrolidinyl)urea)] | 100 to 999 nM |
| CCc1ccccc1C(=O)N1CC=C[C@H]1C(=O)Nc1ccc(-c2ncc(-c3ccc(NC(=O)[C@@H]4CCCN4C(C)=O)cc3)o2)cc1 [Example D-2, (2S)-N-[4-[5-[4-[[[(2S)-1-acetyl-2-pyrrolidinyl]carbonyl]amino]phenyl]-2-oxazolyl]phenyl]-1-(2-ethylbenzoyl)-2,5-dihydro-1H-pyrrole-2-carboxamide] | 100 to 999 nM |
| O=C(Nc1ccc(-c2nnc(-c3ccc(NC(=O)[C@@H]4CCCN4C(=O)[C@@H](O)c4ccccc4)cc3)o2)cc1)[C@@H]1CCCN1C(=O)[C@@H](O)c1ccccc1 [RK-17, (2S,2′S)-N,N′-(1,3,4-oxadiazole-2,5-diyldi-4,1-phenylene)bis(1-((2S)-2-hydroxy-2-phenylacetyl)-2-pyrrolidinecarboxamide)] | 100 to 999 nM |
| O=C(Nc1ccc(-c2cnc(-c3ccc(NC(=O)[C@@H]4CCCN4C(=O)C4(Cc5ccccc5)CCCN4)cc3)o2)cc1)[C@@H]1CCCN1C(=O)C1(Cc2ccccc2)CCCN1 (stereo partly drawn) [Example D-37, (2S,2′S)-N,N′-(1,3-oxazole-2,5-diyldi-4,1-phenylene)bis(1-((2-benzyl-2-pyrrolidinyl)carbonyl)-2-pyrrolidinecarboxamide)] | 1000 to 10000 nM |
| CN(C)[C@@H](C(=O)N1CCCC1C(=O)Nc1ccc(-c2ncc(-c3ccc(NC(=O)[C@@H]4CCCN4C(=O)[C@@H](c4ccccc4)N(C)C)cc3)o2)cc1)c1ccccc1 (stereo partly drawn) [OL-51, (2S)-N,N′-(1,3-oxazole-2,5-diyldi-4,1-phenylene)bis(1-((2R)-2-(dimethylamino)-2-phenylacetyl)-2-pyrrolidinecarboxamide)] | 4.57 to 99 nM |
| C[C@@H](C(=O)N1CCC[C@H]1C(=O)Nc1ccc(-c2ccc(-c3ccc(NC(=O)[C@@H]4CCCN4C(=O)[C@H](C)c4ccccc4)cc3)o2)cc1)c1ccccc1 [JG-53, (2S,2′S)-N,N′-(2,5-furandiyldi-4,1-phenylene)bis(1-((2R)-2-phenylpropanoyl)-2-pyrrolidinecarboxamide)] | 4.57 to 99 nM |
| O=C(C(=O)N1CCC[C@H]1C(=O)Nc1ccc(-c2cc(-c3ccc(NC(=O)[C@@H]4CCCN4C(=O)C(=O)c4ccccc4)cc3)[nH]n2)cc1)c1ccccc1 [JG-31, (2S,2′S)-N,N′-(1H-pyrazole-3,5-diyldi-4,1-phenylene)bis(1-(oxo(phenyl)acetyl)-2-pyrrolidinecarboxamide)] | 4.57 to 99 nM |
| C[C@H](NC(=O)Cc1ccccc1)C(=O)Nc1ccc(-c2nc[nH]c2-c2ccc(NC(=O)[C@H](C)NC(=O)Cc3ccccc3)cc2)cc1 [OL-9, (2S,2′S)-N,N′-(1H-imidazole-4,5-diyldi-4,1-phenylene)bis(2-((phenylacetyl)amino)propanamide)] | 1000 to 10000 nM |
| O=C(Nc1ccc(-c2cnc(-c3ccc(NC(=O)[C@@H]4CCCN4C(=O)C(O)c4ccccn4)cc3)o2)cc1)[C@@H]1CCCN1C(=O)C(O)c1ccccn1 (stereo partly drawn) [Example D-14, (2S,2′S)-N,N′-(1,3-oxazole-2,5-diyldi-4,1-phenylene)bis(1-(hydroxy(2-pyridinyl)acetyl)-2-pyrrolidinecarboxamide)] | 100 to 999 nM |
| C[C@H](NC(=O)c1cc(Cl)cc2ccccc12)C(=O)Nc1ccc(-c2cc(-c3ccc(NC(=O)[C@H](C)NC(=O)c4cc(Cl)cc5ccccc45)cc3)[nH]n2)cc1 [OL-47, N,N′-(1H-pyrazole-3,5-diylbis(4,1-phenyleneimino((2S)-1-oxo-1,2-propanediyl)))bis(3-chloro-1-naphthamide)] | 4.57 to 99 nM |
| CO[C@@H](C(=O)N1CCC[C@H]1C(=O)Nc1ccc(-c2cc(-c3ccc(NC(=O)[C@@H]4CCCN4C(=O)[C@H](OC)c4ccccc4)cc3)[nH]n2)cc1)c1ccccc1 [JG-37, (2S,2′S)-N,N′-(1H-pyrazole-3,5-diyldi-4,1-phenylene)bis(1-((2R)-2-methoxy-2-phenylacetyl)-2-pyrrolidinecarboxamide)] | < 4.57 nM |

Same assay, conditions: Hepatitis C virus, HCV 1b genotype replicon; class symbols; read-out: EC50 Range against HCV 1b

| SMILES | EC50 |
| --- | --- |
| COCCOCC(=O)N1CCC[C@H]1C(=O)Nc1ccc(-c2cnc(-c3ccc(NC(=O)[C@@H]4CCCN4C(=O)COCCOC)cc3)o2)cc1 [XY-8, (2S,2′S)-N,N′-(1,3-oxazole-2,5-diyldi-4,1-phenylene)bis(1-((2-methoxyethoxy)acetyl)-2-pyrrolidinecarboxamide)] | 1000 to 10000 nM |
| Cn1cc(C(=O)C(=O)N2CCC[C@H]2C(=O)Nc2ccc(-c3cnc(-c4ccc(NC(=O)[C@@H]5CCCN5C(=O)C(=O)c5cn(C)c6ccccc56)cc4)o3)cc2)c2ccccc21 [JR-1, (2S,2′S)-N,N′-(2,5-oxazolediyldi-4,1-phenylene)bis[1-[2-(1-methyl-1H-indol-3-yl)-1,2-dioxoethyl]-2-pyrrolidinecarboxamide]] | 100 to 999 nM |
| CO[C@@H](C(=O)N1CCC[C@H]1C(=O)Nc1ccc(-c2cnc(-c3ccc(NC(=O)[C@@H]4CCCN4C(=O)[C@H](OC)c4ccccc4)cc3)o2)cc1)c1ccccc1 [XY-26, (2S,2′S)-N,N′-(1,3-oxazole-2,5-diyldi-4,1-phenylene)bis(1-((2R)-2-methoxy-2-phenylacetyl)-2-pyrrolidinecarboxamide)] | 1000 to 10000 nM |
| Cc1cc(CC(=O)N2C[C@H](O)C[C@H]2C(=O)Nc2ccc(-c3cnc(-c4ccc(NC(=O)[C@@H]5C[C@@H](O)CN5C(=O)Cc5cc(C)no5)cc4)o3)cc2)on1 [XY-52, (2S,4R,2′S,4′R)-N,N′-(1,3-oxazole-2,5-diyldi-4,1-phenylene)bis(4-hydroxy-1-((3-methyl-5-isoxazolyl)acetyl)-2-pyrrolidinecarboxamide)] | 1000 to 10000 nM |
| O=C(Nc1ccc(-c2cnc(-c3ccc(NC(=O)[C@@H]4CCCN4C(=O)c4ccccc4F)cc3)o2)cc1)[C@@H]1CCCN1C(=O)c1ccccc1F [XY-10, (2S,2′S)-N,N′-(1,3-oxazole-2,5-diyldi-4,1-phenylene)bis(1-(2-fluorobenzoyl)-2-pyrrolidinecarboxamide)] | 100 to 999 nM |
| CC(C)(C)O[C@@H]1C[C@@H](C(=O)Nc2ccc(-c3cnc(-c4ccc(NC(=O)[C@@H]5C[C@@H](OC(C)(C)C)CN5C(=O)C5CCCCC5)cc4)o3)cc2)N(C(=O)C2CCCCC2)C1 [XY-66, (2S,4R,2′S,4′R)-N,N′-(1,3-oxazole-2,5-diyldi-4,1-phenylene)bis(4-tert-butoxy-1-(cyclohexylcarbonyl)-2-pyrrolidinecarboxamide)] | 1000 to 10000 nM |
